melting point [°C] | SMILES
240 to 241 | O=S(=O)(c1ccc(Nc2nccc(-c3ccc(C(F)(F)F)cc3)n2)cc1)N1CCOCC1 [Exemplary Compound 39, N-[4-(Morpholin-4-ylsulfonyl)phenyl]-4-[4-(trifluoromethyl)phenyl]pyrimidin-2-amine]
204 to 205 | O=S(=O)(NCCCO)c1ccc(Nc2nccc(-c3ccc(C(F)(F)F)cc3)n2)cc1 [Exemplary Compound 68, N-(3-hydroxypropyl)-4-({4-[4-(trifluoromethyl)phenyl]pyrimidin-2-yl}amino)-benzenesulfonamide]

— patent US20070244140A1, “Anilino-pyrimidine phenyl and benzothiophene analogs” (Wyeth, priority 2006, published 2007)
